Experimental data: patent publication US12209102B2, “Heterocyclic compounds and uses thereof” (Kumquat Biosciences Inc., priority 2022, dated 2025)

Experiments:
[1] = molecular target: T1, K-Ras G12D (Homo sapiens, UniProt P01116, G12D); assay: HTRF resonance energy transfer assay, K-Ras G12D / SOS1 interaction; format: biochemical; conditions: HTRF assay of Example 5; read-out: IC50 against K-Ras G12D
T1 construct: made in house; host or cells: E. coli BL21 (DE3)
Method in brief: (§1)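 Read-out: HTRF 665/620 nm ratio (excitation 337 nm) after roughly 10 min or longer incubation, used to derive IC50. Donor anti-GST-Eu on GST-K-Ras; acceptor anti-6His-XL665 on His-hSOS1. Duplicate dose series from 10 μM down to 0.01 μM.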

[2] = molecular target: T2, K-Ras G12S (Homo sapiens, UniProt P01116, G12S); assay: HTRF resonance energy transfer assay, K-Ras G12S / SOS1 interaction; format: biochemical; conditions: HTRF assay of Example 5; read-out: IC50 against K-Ras G12S
T2 construct: made in house; host or cells: E. coli BL21 (DE3)
Method in brief: as §1

[3] = molecular target: T3, K-Ras G12V (Homo sapiens, UniProt P01116, G12V); assay: HTRF resonance energy transfer assay, K-Ras G12V / SOS1 interaction; format: biochemical; conditions: HTRF assay of Example 5; read-out: IC50 against K-Ras G12V
T3 construct: made in house; host or cells: E. coli BL21 (DE3)
Method in brief: as §1

[4] = molecular target: T4, K-Ras WT (Homo sapiens, UniProt P01116); assay: HTRF resonance energy transfer assay, K-Ras WT / SOS1 interaction; format: biochemical; conditions: HTRF assay of Example 5; read-out: IC50 against K-Ras WT
T4 construct: made in house; host or cells: E. coli BL21 (DE3)
Method in brief: as §1

[5] = test system: GP2D cells; assay: Ras cellular assay, growth of cells with K-Ras G12D mutation (CellTiter-Glo); format: cell-based; conditions: cell growth, Example 9, G12D mutation, read-out: IC50 against GP2D cells
[6] = test system: A549 cells; assay: Ras cellular assay, growth of cells with K-Ras G12S mutation (CellTiter-Glo); format: cell-based; conditions: Homo sapiens, cell growth, Example 9, G12S mutation, read-out: IC50 against A549 cells
Method in brief: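 A549 cells (K-Ras G12S) in RPMI-1640 with 10% heat-inactivated FBS, seeded e.g. 800 per well in standard or ultra-low-attachment 384-well plates, treated next day with a dilution series (e.g. 10-point, 3-fold). Viability by CellTiter-Glo luminescence about 6 days later; IC50 from four-parameter fit.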

[7] = test system: SW620 cells; assay: Ras cellular assay, growth of cells with K-Ras G12V mutation (CellTiter-Glo); format: cell-based; conditions: Homo sapiens, SW-620; cell growth, Example 9, G12V mutation; read-out: IC50 against SW620 cells
Method in brief: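 SW620 (K-Ras G12V) cells, e.g. 800/well in RPMI-1640 with 10% heat-inactivated FBS on standard or ultra-low attachment plates, were dosed the day after plating with e.g. a 10-point 3-fold series. Viability by CellTiter-Glo luminescence about 6 days later; IC50 from four-parameter fit.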

T1 sequence (P01116 1-188 isoform P01116-2 G12D): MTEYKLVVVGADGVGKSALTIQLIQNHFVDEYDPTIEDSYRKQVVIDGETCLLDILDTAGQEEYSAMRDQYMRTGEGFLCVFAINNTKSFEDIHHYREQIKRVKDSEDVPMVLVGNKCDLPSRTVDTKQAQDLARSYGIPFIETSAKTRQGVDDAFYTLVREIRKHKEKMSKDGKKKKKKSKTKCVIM
T3 sequence (P01116 1-188 isoform P01116-2 G12V): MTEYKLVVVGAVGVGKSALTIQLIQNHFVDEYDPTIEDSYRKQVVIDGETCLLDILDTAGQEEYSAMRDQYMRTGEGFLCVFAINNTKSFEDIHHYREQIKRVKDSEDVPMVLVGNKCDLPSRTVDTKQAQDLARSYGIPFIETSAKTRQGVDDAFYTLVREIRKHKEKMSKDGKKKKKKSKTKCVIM
T2 sequence (P01116 1-188 isoform P01116-2 G12S): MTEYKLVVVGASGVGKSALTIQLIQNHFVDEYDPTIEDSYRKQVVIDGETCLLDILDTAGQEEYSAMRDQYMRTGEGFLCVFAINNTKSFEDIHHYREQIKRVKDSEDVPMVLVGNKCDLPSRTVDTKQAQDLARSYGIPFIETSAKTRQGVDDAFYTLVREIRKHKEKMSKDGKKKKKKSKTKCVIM
T4 sequence (P01116 1-188 isoform P01116-2): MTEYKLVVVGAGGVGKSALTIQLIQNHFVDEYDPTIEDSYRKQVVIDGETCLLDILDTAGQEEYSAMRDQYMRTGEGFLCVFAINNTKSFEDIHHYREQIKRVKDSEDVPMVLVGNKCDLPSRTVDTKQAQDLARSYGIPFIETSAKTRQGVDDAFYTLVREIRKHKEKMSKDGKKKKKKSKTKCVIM

SMILES | IC50 [1] | IC50 [2] | IC50 [3] | IC50 [4] | IC50 [6] | IC50 [7] | IC50 [5]
N#Cc1c(N)sc2c(F)ccc(-c3c(Cl)c4c5c(nc(OC[C@@]67CCCN6C[C@H](F)C7)nc5c3F)N(C3C5CC3N(C=O)C5)CCO4)c12 (stereo partly drawn) [Compound 654, 2-amino-4-(8-chloro-10-fluoro-2-(((2R,7aS)-2-fluorotetrahydro-1H-pyrrolizin-7a(5H)-yl)methoxy)-4-(2-formyl-2-azabicyclo[2.1.1]hexan-5-yl)-5,6-dihydro-4H-[1,4]oxazepino[5,6,7-de]quinazolin-9-yl)-7-fluorobenzo[b]thiophene-3-carbonitrile] | < 100 nM | < 100 nM | < 100 nM | < 100 nM | < 5000 nM | < 5000 nM | < 500 nM
C[C@H]1CN(CCC(F)F)c2nc(OC[C@@]34CCCN3C[C@H](F)C4)nc3c(F)c(-c4ccc(F)c5sc(N)c(C#N)c45)c(Cl)c(c23)O1 [Compound 664, 2-amino-4-((6S)-8-chloro-4-(3,3-difluoropropyl)-10-fluoro-2-(((2R,7aS)-2-fluorotetrahydro-1H-pyrrolizin-7a(5H)-yl)methoxy)-6-methyl-5,6-dihydro-4H-[1,4]oxazepino[5,6,7-de]quinazolin-9-yl)-7-fluorobenzo[b]thiophene-3-carbonitrile] | < 100 nM | < 100 nM | < 100 nM | < 100 nM | < 5000 nM | < 5000 nM | < 500 nM
C[C@H]1CN(C2CCN(C(=O)C(F)F)C2)c2nc(OC[C@@]34CCCN3C[C@H](F)C4)nc3c(F)c(-c4ccc(F)c5sc(N)c(C#N)c45)c(Cl)c(c23)O1 (stereo partly drawn) [Compound 665, 2-amino-4-((6S)-8-chloro-4-(1-(2,2-difluoroacetyl)pyrrolidin-3-yl)-10-fluoro-2-(((2R,7aS)-2-fluorotetrahydro-1H-pyrrolizin-7a(5H)-yl)methoxy)-6-methyl-5,6-dihydro-4H-[1,4]oxazepino[5,6,7-de]quinazolin-9-yl)-7-fluorobenzo[b]thiophene-3-carbonitrile] | < 100 nM | < 100 nM | < 100 nM | < 100 nM | < 5000 nM | < 5000 nM | < 500 nM
COCC(C)N1CCOc2c(Cl)c(-c3ccc(F)c4sc(N)c(C#N)c34)c(F)c3nc(OC[C@@]45CCCN4C[C@H](F)C5)nc1c23 (stereo partly drawn) [Compound 670, 2-amino-4-(8-chloro-10-fluoro-2-(((2R,7aS)-2-fluorotetrahydro-1H-pyrrolizin-7a(5H)-yl)methoxy)-4-(1-methoxypropan-2-yl)-5,6-dihydro-4H-[1,4]oxazepino[5,6,7-de]quinazolin-9-yl)-7-fluorobenzo[b]thiophene-3-carbonitrile] | < 100 nM | < 100 nM | < 100 nM | < 100 nM | < 5000 nM | < 5000 nM | < 500 nM
N#CCC1COc2c(Cl)c(-c3ccc(F)c4sc(N)c(C#N)c34)c(F)c3nc(OC[C@@]45CCCN4C[C@H](F)C5)nc(c23)N1CC(F)F (stereo partly drawn) [Compound 700, 2-amino-4-(8-chloro-5-(cyanomethyl)-4-(2,2-difluoroethyl)-10-fluoro-2-(((2R,7aS)-2-fluorotetrahydro-1H-pyrrolizin-7a(5H)-yl)methoxy)-5,6-dihydro-4H-[1,4]oxazepino[5,6,7-de]quinazolin-9-yl)-7-fluorobenzo[b]thiophene-3-carbonitrile] | < 100 nM | < 100 nM | < 100 nM | < 100 nM | < 5000 nM | < 5000 nM | < 500 nM

Now from value to molecule, other results behind:

IC50 [1] | IC50 [2] | IC50 [3] | IC50 [4] | IC50 [6] | IC50 [7] | SMILES | IC50 [5]
< 100 nM | < 100 nM | < 100 nM | < 100 nM | < 5000 nM | < 5000 nM | N#Cc1c(N)sc2c(F)ccc(-c3c(Cl)c4c5c(nc(OC[C@@]67CCCN6C[C@H](F)C7)nc5c3F)N(C3CCN(C(=O)C(F)F)C3)CCO4)c12 (stereo partly drawn) [Compound 649, 2-amino-4-(8-chloro-4-(1-(2,2-difluoroacetyl)pyrrolidin-3-yl)-10-fluoro-2-(((2R,7aS)-2-fluorotetrahydro-1H-pyrrolizin-7a(5H)-yl)methoxy)-5,6-dihydro-4H-[1,4]oxazepino[5,6,7-de]quinazolin-9-yl)-7-fluorobenzo[b]thiophene-3-carbonitrile] | < 500 nM
< 100 nM | < 100 nM | < 100 nM | < 100 nM | < 5000 nM | < 5000 nM | C#Cc1c(F)ccc2cc(O)cc(-c3nc4c5c(nc(OC[C@@]67CCCN6C[C@H](F)C7)nc5c3F)N(C3CCCOC3)CCO4)c12 (stereo partly drawn) [Compound 661, 5-ethynyl-6-fluoro-4-(4-fluoro-2-(((2R,7aS)-2-fluorotetrahydro-1H-pyrrolizin-7a(5H)-yl)methoxy)-10-(tetrahydro-2H-pyran-3-yl)-9,10-dihydro-8H-7-oxa-1,3,6,10-tetraazacyclohepta[de]naphthalen-5-yl)naphthalen-2-ol] | < 500 nM
< 100 nM | < 100 nM | < 100 nM | < 100 nM | < 5000 nM | < 5000 nM | N#Cc1c(N)sc2c(F)ccc(-c3c(Cl)c4c5c(nc(OC[C@@]67CCCN6C[C@H](F)C7)nc5c3F)N(CC3(O)CCC3)CCO4)c12 [Compound 667, 2-amino-4-(8-chloro-10-fluoro-2-(((2R,7aS)-2-fluorotetrahydro-1H-pyrrolizin-7a(5H)-yl)methoxy)-4-((1-hydroxycyclobutyl)methyl)-5,6-dihydro-4H-[1,4]oxazepino[5,6,7-de]quinazolin-9-yl)-7-fluorobenzo[b]thiophene-3-carbonitrile] | < 500 nM
< 100 nM | < 100 nM | < 100 nM | < 100 nM | < 5000 nM | < 5000 nM | N#Cc1c(N)sc2c(F)ccc(-c3c(Cl)c4c5c(nc(OC[C@@]67CCCN6C[C@H](F)C7)nc5c3F)N(C3CCOC3)CC(CO)O4)c12 (stereo partly drawn) [Compound 681, 2-amino-4-(8-chloro-10-fluoro-2-(((2R,7aS)-2-fluorotetrahydro-1H-pyrrolizin-7a(5H)-yl)methoxy)-6-(hydroxymethyl)-4-(tetrahydrofuran-3-yl)-5,6-dihydro-4H-[1,4]oxazepino[5,6,7-de]quinazolin-9-yl)-7-fluorobenzo[b]thiophene-3-carbonitrile] | < 500 nM
< 100 nM | < 100 nM | < 100 nM | < 100 nM | < 5000 nM | < 5000 nM | N#Cc1c(N)sc2c(F)ccc(-c3c(Cl)c4c5c(nc(OC[C@@]67CCCN6C[C@H](F)C7)nc5c3F)N(C3CCOC3)CCO4)c12 (stereo partly drawn) [Compound 688, 2-amino-4-(8-chloro-10-fluoro-2-(((2R,7aS)-2-fluorotetrahydro-1H-pyrrolizin-7a(5H)-yl)methoxy)-4-(tetrahydrofuran-3-yl)-5,6-dihydro-4H-[1,4]oxazepino[5,6,7-de]quinazolin-9-yl)-7-fluorobenzo[b]thiophene-3-carbonitrile] | < 500 nM
< 100 nM | < 100 nM | < 100 nM | < 100 nM | < 5000 nM | < 5000 nM | N#Cc1c(N)sc2c(F)ccc(-c3c(Cl)c4c5c(nc(OC[C@@]67CCCN6C[C@H](F)C7)nc5c3F)N(C3CC5(CCN(C=O)C5)C3)CCO4)c12 (stereo partly drawn) [Compound 698, 2-amino-4-(8-chloro-10-fluoro-2-(((2R,7aS)-2-fluorotetrahydro-1H-pyrrolizin-7a(5H)-yl)methoxy)-4-(6-formyl-6-azaspiro[3.4]octan-2-yl)-5,6-dihydro-4H-[1,4]oxazepino[5,6,7-de]quinazolin-9-yl)-7-fluorobenzo[b]thiophene-3-carbonitrile] | < 500 nM
< 100 nM | < 100 nM | < 100 nM | < 100 nM | < 5000 nM | < 5000 nM | N#Cc1c(N)sc2c(F)ccc(-c3c(Cl)c4c5c(nc(OC[C@@]67CCCN6C[C@H](F)C7)nc5c3F)N(C3CCN(C(=O)C[C@@H]5CCOC5)C3)CCO4)c12 (stereo partly drawn) [Compound 699, 2-amino-4-(8-chloro-10-fluoro-2-(((2R,7aS)-2-fluorotetrahydro-1H-pyrrolizin-7a(5H)-yl)methoxy)-4-(1-(2-((S)-tetrahydrofuran-3-yl)acetyl)pyrrolidin-3-yl)-5,6-dihydro-4H-[1,4]oxazepino[5,6,7-de]quinazolin-9-yl)-7-fluorobenzo[b]thiophene-3-carbonitrile] | < 500 nM
